In patent US20260077055A1, “COMPOSITIONS OF POLYPLEXES AND SAPONINS” (SAPREME TECHNOLOGIES B.V., priority 2022, published 2026):

Tested on: HEK293FT cells
Assay: pEGFP-N3 polyplex transfection of HEK293FT cells, live cell imaging
Assay type: cell-based
Method: Spectrophotometry: Concentrations were determined using either a Thermo Nanodrop 2000 spectrometer or Perkin Elmer Lambda 365 Spectrophotometer. DLS measurements: DLS measurements were performed on a Malvern Nano ZS (Malvern Instruments, U.K.), operating at 633 nm with a 173° scattering angle, at 25 or 37° C. DLS mean diameters were obtained from the intensity particle size distribution provided by Malvern Zetasizer Software. DLS histograms were obtained from the intensity particle size distributions. Zeta-potential: The zeta-potential values of the polyplexes were obtained by laser doppler anemometry (LDA), measuring the mean electrophoretic mobility (Malvern Zetasizer Nano ZS, Malvern Instruments, U.K.). Measurements were performed in 10 mM HEPES pH 7.1, 150 mM NaCl. TEM measurements: TEM measurements were performed on a JEOL JEM-1011 operated at 100 kV electron microscope, equipped with a camera S5 MegaView G2. A drop of a solution of polyplexes (0.1 mg/mL) was settled on a PELCO® TEM carbon type-B film copper grid and allowed to dry at room temperature for 1 h. Infrared Spectroscopy: FT-IR spectra were recorded on a Bruker Vertex 70v, equipped with a RockSolid interferometer, after preparing the samples (1-2 mg) as KBr pellets. Spectra were processed using OPUS 7.8 software (Bruker). NMR Spectroscopy: 1H NMR spectra were recorded on a 11.7 T Bruker DRX-500 spectrometer. Chemical shifts are reported in ppm (o units) downfield from the HOD residual solvent peak (CD3OD). Experiments were recorded acquiring 64-512 scans, with a pre-scan delay (d1) of 12 s, and an acquisition time (aq) of 4 s at 300 K. 13C NMR spectrum was recorder on a 9.39 T Varian Innova 400 spectrometer. MestReNova 14.2 software (Mestrelab Research) was used for spectra processing. Cell culture conditions and treatments: HEK293FT, A431, A2058, Neuro2A, Hepa1-6 and MDA-MB 468 were maintained in 10% FBS-supplemented DMEM medium (PAN-Biotech GmbH, or Lonza Group, Basel, Switzerland)+Pen/Strep at 37° C. with 5% CO2. […]

## CC(=O)OC1C(C)OC(OC2C(C)OC(OC(=O)[C@]34CCC(C)(C)CC3C3=CCC5[C@@]6(C)CC[C@H](OC7OC(C(=O)O)C(O)C(OC8OCC(O)C(O)C8O)C7OC7OC(CO)C(O)C(O)C7O)[C@@](C)(/C=N/NC(=O)CCCCCN7C(=O)C=CC7=O)C6CC[C@@]5(C)[C@]3(C)C[C@H]4O)C(OC3OC(C)C(OC4OCC(O)C(OC5OC(CO)C(O)C(O)C5O)C4O)C(O)C3O)C2O)C(O)C1OC1OCC(O)C(O)C1O (stereo partly drawn) [SO1861-EMCH]
40 pM or 120 pM pEGFP-N3, N/P 8, SO1861-EMCH = 4000 nM co-administered with PAMAM G5-(PEG N3)3.5 polyplexes
  pEGFP-N3 transfection (GFP expression): nearly all cells were transfected
40 pM or 120 pM pEGFP-N3 polyplexes, N/P 8, SO1861-EMCH = 4000 nM co-administered with PAMAM G5-(PEG N3)3.5 polyplexes
  toxicity (cell confluency): strong toxicity was observed
4000 nM, without polyplex (data not shown)
  toxicity of SO1861-EMCH alone: not toxic
